Source: patent US12622956B2, “Methods and vaccines for inducing immune responses to multiple different MHC molecules” (Mayo Foundation for Medical Education and Research, priority 2015, dated 2026)
Ends that are not written are not given here.

What was measured:
Assay type in all cases: cell-based, human
T-cells = assay: PBMC culture pulsed with long polypeptide, restimulation, intracellular cytokine (IFNγ) assay, healthy donors; set-up: key to Testing (confirmed immunogenicity in healthy donors): *: Represents polypeptides confirmed to be immunogenic in 4/4 healthy donors.; ¶: Represents polypeptides confirmed to be immunogenic in one healthy donor; settings: for immunogenicity (frequency of antigen-specific T-cells): FIGS. 4C and 4D, unvaccinated HLA-A2.1+ healthy volunteers; for immune response by antigen specific IFNγ production: FIGS. 4C and D, CD4+ and CD8+ T cells, four healthy donors, background subtracted
Description: The SEA polypeptides, CMV long polypeptide, and VNTR polypeptide were tested in a culture system. Briefly, bulk peripheral blood mononuclear cells (PBMC) were thawed and exposed to GM-CSF on day 0 in culture. […] On day 2, media was washed out, and the cells were split 1:6 in fresh media containing IL-7 for T-cell expansion. Further splits occurred with simple addition of more media containing IL-7 depending upon acidity of the media between days 7-15. On day 16, an antigen specific restimulation of T-cell cultures was performed utilizing fresh PBMC as the antigen presenting cells. These fresh PBMC were thawed on day 14 and treated the same way as the initial culture on days 0-1, before being used on day 16. At the time of restimulation, an intracellular cytokine assay was performed. The T-cell cultures also were allowed to proliferate for an additional […] in media containing IL-7. At the end of culture, day 28, T-cells were further tested with a new intracellular cytokine assay utilizing fresh PBMC, prepared the same way as the PBMC used on day 16 for the first intracellular cytokine assay. Representative dot-plots for IFNγ levels are shown for the CMV pp65 polypeptide and the SEA2 polypeptide, with levels being much lower when T-cells were not restimulated with the same polypeptide they saw at the initiation of culture. […] Each data point represents the level of IFNγ after subtracting the levels of IFNγ from restimulation with irrelevant polypeptides or no polypeptide from levels when T-cells were restimulated with the original polypeptide.
The synthesized long peptides were individually pulsed onto GM+R848+LPS conditioned PBMC cultures established from unvaccinated HLA-A2.1+ healthy volunteers, then expanded in rhIL-7 or rhIL-7+rhIL-2. […] Proliferation of CD4+ and CD8^+ T-cells was indistinguishable, with both subsets retaining their initial proportionality during expansion.

MDA-MB-231.MUC1 = assay: Cr51 release lysis by peptide-driven T-cells; settings: T-cells from 3 donors; FIG. 6
Source text: T-cells from GM+R848+LPS conditioned PBMC driven by either SEA2 or SEA1 long peptides not only specifically recognized one or both of these sensitizing peptides at restimulation, but also preferentially lysed the HLA-A2.1+ human breast cancer line MDA-MB-231 transduced to express MUC1 (MDA-MB-231.MUC1) compared to MDA-MB-231.Neo control targets. […] Polyclonally driven T-cells from all 3 donors lysed MDA-MB-231.MUC1 indistinguishably from MDA-MB-231.Neo.

SEA1-specific T-cells = assay: Effect of C-terminal amidation on sensitizing Ag-specific IFNγ T cells; settings: FIG. 9; one healthy donor; versus SEA1 without C-terminal amidation
Source text: Amidated polypeptides were amidated at the C-terminus as described elsewhere (see, e.g., Brinckerhoff et al., Int. J. Cancer 83 (3): 326-34 (1999)).
A cocktail of peptides such as SEA1, SEA1-amide, acetyl-SEA1 and acetyl-SEA1-amide can be used to capture a broadened SEA1 response (or similarly for any other peptide).

Row | Substance | Testing (confirmed immunogenicity in healthy donors) (T-cells) | further results
1 | 3 (NRPALGSTAPPVHNVTSASGSASGSASTLV; immunogenic polypeptide) [compound 3] | */MUC1 | –
2 | 5 (STSPQLSTGVSFFFLSFHISNLQFNSSLEDPSTD; immunogenic polypeptide) [compound 5] | */MUC1 | –
3 | 6 (STDYYQELQRDISEMFLQIYKQGGFLGLSNIKFRPGSVV; immunogenic polypeptide) [compound 6] | */MUC1 | –
4 | 7 (VHDVETQFNQYKTEAASRYNLTISDVSVSDVPFP; immunogenic polypeptide) [compound 7] | */MUC1 | –
5 | 11 (LSFLQDIQEVQGYVLIAHNQVRQVPLQRL; immunogenic polypeptide) [compound 11] | ¶/HER2 | –
6 | 12 (AHNQVRQVPLQRLRIVRGTQLFEDNYALA; immunogenic polypeptide) [compound 12] | ¶/HER2 | –
7 | 13 (TEILKGGVLIQRNPQLCYQDTILWKDIFH; immunogenic polypeptide) [compound 13] | ¶/HER2 | –
8 | 14 (YQDTILWKDIFHKNNQLALTLIDTNRSRACHPC; immunogenic polypeptide) [compound 14] | ¶/HER2 | –
9 | 16 (NIQEFAGCKKIFGSLAFLPESFDGDP; immunogenic polypeptide) [compound 16] | ¶/HER2 | –
10 | 17 (VFETLEEITGYLYISAWPDSLPDLSV; immunogenic polypeptide) [compound 17] | ¶/HER2 | –
11 | 18 (DLSVFQNLQVIRGRILHNGAYSLTLQGLG; immunogenic polypeptide) [compound 18] | ¶/HER2 | –
12 | 20 (ELGSGLALIHHNTHLCFVHTVPW; immunogenic polypeptide) [compound 20] | ¶/HER2 | –
13 | 24 (IKRRQQKIRKYTMRRLLQETELVEPLTPS; immunogenic polypeptide) [compound 24] | ¶/HER2 | –
14 | 26 (GVGSPYVSRLLGICLTSTVQLVTQLM; immunogenic polypeptide) [compound 26] | ¶/HER2 | –
15 | 29 (DLAARNVLVKSPNHVKITDFG; immunogenic polypeptide) [compound 29] | ¶/HER2 | –
16 | 30 (DGGKVPIKWMALESILRRRFTHQS; immunogenic polypeptide) [compound 30] | ¶/HER2 | –
17 | 33 (SECRPRFRELVSEFSRMARDPQRFVVIQ; immunogenic polypeptide) [compound 33] | ¶/HER2 | –
18 | 57 (GVGSPYVSRLLGICLTSTVQLV; immunogenic polypeptide) [compound 57] | ¶/HER2 | –
19 | AHGVTSAPDTRPAPGSTAPPAHGV [VNTR, reference compound] | – | immunogenicity (frequency of antigen-specific T-cells) (T-cells): reproducibly less effective
20 | SPQLSTGVSFFFLSFHISNLQFNSSLEDPSTD [SEA1] | – | immunogenicity (frequency of antigen-specific T-cells) (T-cells): highly immunogenic; immune response by antigen specific IFNγ production (T-cells): consistently exhibited an immune response; lysis of MDA-MB-231.MUC1 compared to MDA-MB-231.Neo control targets (MDA-MB-231.MUC1): significantly more
21 | SPQLSTGVSFFFLSFHISNLQFNSSLEDPSTD-amide (SPQLSTGVSFFFLSFHISNLQFNSSLEDPSTD-NH2) [SEA1-amide, SEA1 amidated at the C-terminus] | – | SEA1-specific CD8+ T-cell response (SEA1-specific T-cells): less affected by amidation; sensitizing SEA1-specific CD4+ IFNγ-producing T-cells (SEA1-specific T-cells): far superior
22 | SQEPMSIYVYALPLKMLNIPSINVHHYP [SEQ ID NO: 1] | – | immunogenicity (frequency of antigen-specific T-cells) (T-cells): highly immunogenic; immune response by antigen specific IFNγ production (T-cells): consistently exhibited an immune response
23 | STDYYQELQRDISEMFLQIYKQGGFLGLSNIKFRPGSVV [SEA2] | – | immunogenicity (frequency of antigen-specific T-cells) (T-cells): highly immunogenic; immune response by antigen specific IFNγ production (T-cells): consistently exhibited an immune response; lysis of MDA-MB-231.MUC1 compared to MDA-MB-231.Neo control targets (MDA-MB-231.MUC1): significantly more
